The record followed here is patent publication US7179817B2, “Carboxylic acid derivatives and drugs containing the same as the active ingredient” (ONO Pharmaceutical Co., Ltd., priority 2001, dated 2007).

Each structure is given as a SMILES string. Where a name gives a salt, the structure may show the parent alone.

T1 sequence (P21453 whole entry): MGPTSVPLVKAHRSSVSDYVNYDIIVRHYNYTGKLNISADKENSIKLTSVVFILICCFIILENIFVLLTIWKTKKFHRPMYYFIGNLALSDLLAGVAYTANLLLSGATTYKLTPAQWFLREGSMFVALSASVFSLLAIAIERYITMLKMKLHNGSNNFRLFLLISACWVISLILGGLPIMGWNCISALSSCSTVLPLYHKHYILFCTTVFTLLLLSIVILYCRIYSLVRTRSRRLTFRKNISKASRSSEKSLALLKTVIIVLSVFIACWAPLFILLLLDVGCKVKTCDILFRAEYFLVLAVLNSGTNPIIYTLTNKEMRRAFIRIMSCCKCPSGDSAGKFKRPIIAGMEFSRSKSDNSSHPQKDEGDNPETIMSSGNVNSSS

The test concerns the target T1, human EDG-1 (Homo sapiens, UniProt P21453).
T1 construct: expressed in transfected cells; host or cells: CHO (Chinese Hamster Ovary) cells, cultured under Blasticidin selection
Put plainly: Assessment of an agonistic action by monitoring the intracellular calcium ion. It is filed as cell-based. As to conditions: human EDG-1 gene over expression CHO cells; Fura2 intracellular Ca2+ increase; Concentration of Half-100 nM S1P Ca2+ release. How it is done: (1) Assessment of an Agonistic Action by Monitoring the Intracellular Calcium Ion
The assessment of an agonistic action for the receptor was carried out using the human EDG-1 gene over expression cells (Chinese Hamster Ovary, CHO). EDG-1 expression cells were cultured with Ham's F12 (GIBCO BRL, No. 11765-047) medium containing 10% FBS, Penicillin/Streptomycin and Blasticidin (5 μg/mL). First, in order to load Fura2-AM (Dojindo, No. 348-05831) in the cells, the cells were incubated by 5 μM Fura2-AM solution (Ham's F12 medium containing 10% FBS, 20 mM HEPES pH7.4, 2.5 mM Probenecid (Sigma, catalog No.P-8761)) at 37° C. for 60 min. Next, the cells were washed once by Hanks solution containing 20 mM HEPES pH7.4, 2.5 mM Probenecid and soaked in the Hanks solution until assay.
The plate was set on the fluorescence drug screening system (Hamamatsu photonics FDSS-2000). After measurement of the background signal for […], the solution of the assay compound was added. The test compounds were added at the final concentration range of between 0.1 nM and 10 μM as the final dimethyl sulfoxide (DMSO) concentration made to 1/1000 of the original solution. Fura2-Ca^2+ fluorescence excited at 340 nm and 380 nm was measured every 3 seconds at emission wavelength 500 nm. Intracellular Ca^2+ concentration was assessed with fluorescent ratio of excitation wavelength 340 nm and 380 nm. Agonistic activity was calculated as below, that is, the control value (A) was obtained by measuring the response of 100 nM S1P (BIOMOL:M9076) after adding DMSO to the well for the test compounds, and (A) was compared with the value (B) which is the difference of fluorescent ratio obtained by measuring response between the pre and post of test compounds added. Rate of intracellular Ca^2+ increase (%) was calculated as following equation. rate of increase (%)=(B/A)×100
Moreover, rate of increase was calculated at each concentration and EC50 (Concentration of Half—100 nM S1P Ca^2+ release) of each compound was calculated setting the maximal concentration of the compound giving the response corresponding to that of S1P at the concentration of 100 nM.
On the technique in general: Calcium flux is commonly read through the fluorescence of an indicator in the cells.
As for `O=C(CCc1ccc(OCCCCCc2ccccc2)cc1)Nc1ccc(Cl)c(C(=O)O)c1` [Example 2(1), 2-chloro-5-[3-(4-(5-phenylpentyloxy)phenyl)propanoylamino]benzoic acid], the EC50 was 9 nM.
On to `O=C(CCc1ccc(OCCCCCc2ccccc2)cc1)Nc1ccc(C(=O)O)c(C(=O)O)c1` [Example 2(3), 2-carboxy-5-[3-(4-(5-phenylpentyloxy)phenyl)propanoylamino]benzoic acid], for which the 50% effective concentration (EC50) stood at 1.4 nM.
Take `O=C(CCc1ccc(OCCCCCc2ccccc2)cc1)Nc1cc(Cl)c(Cl)c(C(=O)O)c1` [Example 9(6), 2,3-dichloro-5-[3-(4-(5-phenylpentyloxy)phenyl)propanoylamino]benzoic acid]: the EC50 is 7.3 nM.
As for `O=C(O)c1cncc(C(=O)NCCc2ccc(OCCCCCc3ccccc3)cc2)c1` [Example 16(3), 5-[2-(4-(5-phenylpentyloxy)phenyl)ethylaminocarbonyl]pyridine-3-carboxylic acid], the figure is 4.5 nM.
Turning to `O=C(NCCc1ccc(OCCCCCc2ccccc2)cc1)c1ccc(Cl)c(C(=O)O)c1` [Example 16, 2-chloro-5-[2-(4-(5-phenylpentyloxy)phenyl)ethylaminocarbonyl]benzoic acid], the EC50 worked out at 8.3 nM.
For the compound `O=C(NCCc1ccc(OCCCCCc2ccccc2)cc1)c1ccc(C(=O)O)c(C(=O)O)c1` [Example 19, 2-carboxy-5-[2-(4-(5-phenylpentyloxy)phenyl)ethylaminocarbonyl]benzoic acid], the 50% effective concentration (EC50) amounted to 1.5 nM.
Regarding `O=C(O)CNC(=O)CCc1ccc(CCCCCCc2ccccc2)cc1` [Example 28, 2-[3-(4-(6-phenylhexyl)phenyl)propanoylamino]acetic acid], the EC50 came out at 25 nM.
Turning to `O=C(O)CCNCCc1ccc(OCCCCCc2ccccc2)cc1` [Example 32, 3-[2-(4-(5-phenylpentyloxy)phenyl)ethylamino]propanoic acid hydrochloride], the EC50 is 30 nM.

As usually defined, the EC50 is the concentration at which the effect is half-maximal.
